Our source for the DC50, EC50 and inhibition values is patent US20250100996A1, “HETEROCYCLOALKYL AND HETEROARYL COMPOUNDS AND PHARMACEUTICAL COMPOSITIONS THAT MODULATE IKZF2” (Plexium, Inc., priority 2021, published 2025).

One experiment has as its target T1, GSPT1 (Homo sapiens, UniProt P15170).
T1 construct: HiBiT-tagged cells were generated using CRISPR-Cas12a technology; endogenous in cells; host or cells: HEK293 (endogenous GSPT1 locus edited with HiBiT knock-in)
The experiment in a line: GSPT1 reporter degradation assay (HEK293 hGSPT1 HiBiT-tagged cells). To be noted: 24 hour incubation. It is filed as cell-based. The protocol:
HEK293_hGSPTl_HiBiT-tagged cells were generated using CRISPR-Cas12a technology. Briefly, ˜400,000 HEK293 cells were transiently co-transfected with precomplexed ribonuclear proteins (RNPs) consisting of 80 pmol of crRNA (IDT), 62 pmol of Cas12a protein (IDT), 3 μg of ssODN donor (IDT; Alt® modifications), 78 pmol of electroporation enhancer (IDT), and 200 ng of pMaxGFP (Lonza). The transfection was performed via nucleofection (Lonza, 4D-Nucleofector X-unit) using solution P3 and program CM-130 in a ([…]) cuvette. Five days post-nucleofection, cells were single-cell-sorted for GFP+(transfected) cells by FACs in 96-well plates and clonally selected. Clones were screened and verified for the desired modification via targeted deep sequencing using gene-specific primers with partial Illumina adapter overhangs as previously described. In brief, clonal cell pellets were harvested, lysed, and used to generate gene-specific amplicons with partial Illumina adapters in PCR #1. Amplicons were indexed in PCR #2 and pooled with other targeted amplicons for other loci to create sequence diversity. Additionally, 10% PhiX sequencing control V3 (Illumina) was added to the pooled amplicon library prior to running the sample on a Miseq Sequencer System (Illumina) to generate paired 2×250 bp reads. Samples were demultiplexed using the index sequences, fastq files were generated, and NGS analysis was performed using CRIS.py. Final clones were authenticated using the PowerPlex fusion system (Promega) and tested negative for mycoplasma by the MycoAlertTMPlus mycoplasma detection kit (Lonza).
Editing construct sequences and screening primers are outlined below (sequence from 5′ to 3′). hGSPT1Cas12acrRNA, CAGE635.GSPT1.g1: […]; CAGE635.g1.anti.ssODN: ttcctcacagtattgtgcagggtcatcaagaaaatgctta[…] CAGCCGCTCACgtcCttctctggaaccagtttcagaacttttccaattgcaatggtcttacctagaaatgaaattttaa (HiBiT tag and silent blocking modifications to prevent Cas12a recutting after integration are in upper case); CAGE635.hGSPT1.DS.F: […]; CAGE635.hGSPT1.DS.R: GTGAA GTAGGCTTCTGCAGTC.
The GSPT1 degradation assay was carried out by harvesting the HEK 293T reporter cell lines and resuspending the cells in media formulated for reduced background fluorescence (FluoroBrite; Thermo Fisher). The respective cell lines were seeded at a density of 8,000 cells/well into white-opaque 384-well optical grade assay tissue culture plates (Greiner 781080-20). The cells were incubated overnight at 37° C. to allow for attachment to the assay plate. Dilutions of the compounds were prepared in DMSO from 10 mM compound stocks. Test compounds were added in a 10-point dilution series (typically 10 μM to 100 pM) using a TECAN D300e Digital Dispenser with an upper limit of 0.5% final DMSO. Plates were centrifuged at 320×g for 2 minutes at room temperature, and subsequently incubated at 37° C.
After 24 hour incubation with the compounds, the plates were allowed to cool to room temperature for 10 minutes. 30 μL of HiBiT lytic buffer+1:50 HiBiT substrate Solution were added to each well. Plates were centrifuged at 320×g for 2 minutes at room temperature and then incubated with shaking at room temperature for 10 minutes covered with foil. Plates were read on a CLARIOstar microplate reader (BMG LabTech), measuring at 450 nm (donor emission) and 610 nm or 630 nm (acceptor emission). The DC50 values were determined by regression to best fit four-parameter logistic curves using GraphPad Prism.

The target of experiment [1] is T2, human E3 ligase component cereblon (CRBN) (Homo sapiens, UniProt Q96SW2).
T2 construct: host or cells: HEK293T
T2 sequence (Q96SW2 whole entry): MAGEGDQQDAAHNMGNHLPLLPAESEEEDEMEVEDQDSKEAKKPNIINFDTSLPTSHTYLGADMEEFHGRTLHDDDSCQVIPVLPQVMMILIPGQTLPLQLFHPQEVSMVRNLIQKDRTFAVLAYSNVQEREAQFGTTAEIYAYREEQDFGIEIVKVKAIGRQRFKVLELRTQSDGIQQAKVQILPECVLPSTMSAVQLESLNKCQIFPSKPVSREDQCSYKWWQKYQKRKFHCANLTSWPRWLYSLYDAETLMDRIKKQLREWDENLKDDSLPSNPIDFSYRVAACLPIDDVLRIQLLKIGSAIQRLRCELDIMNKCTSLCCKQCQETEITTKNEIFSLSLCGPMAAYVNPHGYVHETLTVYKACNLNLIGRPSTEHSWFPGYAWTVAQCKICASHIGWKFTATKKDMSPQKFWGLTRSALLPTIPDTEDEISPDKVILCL
T2 sequence (Q16531 whole entry partner): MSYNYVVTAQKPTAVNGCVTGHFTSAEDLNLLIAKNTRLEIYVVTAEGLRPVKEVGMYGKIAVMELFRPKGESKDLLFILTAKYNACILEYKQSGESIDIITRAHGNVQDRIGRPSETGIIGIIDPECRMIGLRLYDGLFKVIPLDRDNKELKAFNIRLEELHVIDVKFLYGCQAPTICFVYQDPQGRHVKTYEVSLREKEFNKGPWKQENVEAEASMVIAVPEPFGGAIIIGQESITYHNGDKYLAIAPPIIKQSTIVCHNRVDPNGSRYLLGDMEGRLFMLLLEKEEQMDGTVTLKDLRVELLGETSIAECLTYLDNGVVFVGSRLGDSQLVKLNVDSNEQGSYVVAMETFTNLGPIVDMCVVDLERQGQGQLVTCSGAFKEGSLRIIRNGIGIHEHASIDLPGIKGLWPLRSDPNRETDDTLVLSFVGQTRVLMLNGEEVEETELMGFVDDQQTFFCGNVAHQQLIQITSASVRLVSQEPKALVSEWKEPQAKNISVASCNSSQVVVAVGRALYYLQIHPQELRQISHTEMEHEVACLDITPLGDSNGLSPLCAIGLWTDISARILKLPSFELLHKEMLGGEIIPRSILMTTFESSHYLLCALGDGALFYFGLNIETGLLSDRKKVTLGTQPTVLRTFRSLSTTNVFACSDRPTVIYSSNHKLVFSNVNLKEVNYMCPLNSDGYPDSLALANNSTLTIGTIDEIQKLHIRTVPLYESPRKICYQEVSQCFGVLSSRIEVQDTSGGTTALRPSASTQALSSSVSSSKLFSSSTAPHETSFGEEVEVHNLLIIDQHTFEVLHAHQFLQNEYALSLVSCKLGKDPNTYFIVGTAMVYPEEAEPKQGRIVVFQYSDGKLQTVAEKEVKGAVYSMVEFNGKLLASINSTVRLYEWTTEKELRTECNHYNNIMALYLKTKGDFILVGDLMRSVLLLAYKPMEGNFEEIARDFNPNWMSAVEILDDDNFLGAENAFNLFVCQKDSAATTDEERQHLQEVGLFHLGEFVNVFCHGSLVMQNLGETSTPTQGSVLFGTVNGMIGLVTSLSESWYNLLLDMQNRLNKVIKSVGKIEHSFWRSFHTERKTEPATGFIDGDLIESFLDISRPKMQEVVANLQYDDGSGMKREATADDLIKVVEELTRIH
The experiment in a line: Cereblon (CRBN) target engagement, NanoBRET TE Intracellular E3 Ligase Assay in transfected HEK-293T cells. To be noted: read-out: CRBN Binding EC50. The procedure, abridged: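 HEK-293T cells transiently co-transfected with NanoLuc-CRBN (N-terminal NanoLuc) and DDB1 were dosed with CRBN tracer and an 11-point compound series (typically 10 μM to 100 pM) for 2 h at 37° C. BRET at 450/610 nm gave IC50 by four-parameter logistic fit.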

In a further experiment the target is T3, IKZF1 (Ikaros) (Homo sapiens, UniProt Q13422).
T3 construct: mScarlet (behind P2A) (C, cleaved yes); expressed in transfected cells
T3 sequence (Q96SW2 whole entry partner): as the sequence (Q96SW2 whole entry) above
T3 sequence (Q16531 whole entry partner): as the sequence (Q16531 whole entry partner) above
T3 sequence (Q13422 whole entry): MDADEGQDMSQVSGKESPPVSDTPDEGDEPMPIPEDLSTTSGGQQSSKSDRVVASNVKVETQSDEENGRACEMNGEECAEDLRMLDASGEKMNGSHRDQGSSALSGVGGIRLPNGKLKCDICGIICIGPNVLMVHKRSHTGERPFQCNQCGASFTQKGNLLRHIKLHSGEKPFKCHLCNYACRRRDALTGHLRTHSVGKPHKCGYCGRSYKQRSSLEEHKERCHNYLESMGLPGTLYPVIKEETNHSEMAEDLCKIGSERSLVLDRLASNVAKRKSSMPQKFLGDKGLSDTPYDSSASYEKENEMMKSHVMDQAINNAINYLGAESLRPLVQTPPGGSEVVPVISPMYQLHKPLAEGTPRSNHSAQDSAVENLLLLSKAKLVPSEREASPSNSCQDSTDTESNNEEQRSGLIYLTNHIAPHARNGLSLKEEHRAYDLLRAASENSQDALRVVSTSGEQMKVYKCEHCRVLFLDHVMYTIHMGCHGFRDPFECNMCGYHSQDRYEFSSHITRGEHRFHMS
Description: IKZF1 reporter degradation assay (HEK 293T IKZF1-mNeonGreen reporter cell line). Conditions: HEK 293T IKZF1-mNeonGreen reporter, 24 hours incubation. It counts as cell-based. In outline: (§1)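 Degradation is measured as loss of mNeonGreen fused C-terminally to each human IKZF protein in clonal HEK 293T cells, with co-expressed mScarlet as reference. Treatment lasts 24 h at 37 °C. DC50 is derived by logistic fitting of percent positive cells.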

Experiment [2] concerns the target T4, IKZF2 (Helios) (Homo sapiens, UniProt Q9UKS7).
T4 construct: Leu-Asp junction (codons ctcgac before the linker); mScarlet (behind P2A) (C, cleaved yes); expressed in transfected cells
The experiment in a line: IKZF2 reporter degradation assay (HEK 293T IKZF2-mNeonGreen reporter cell line). It counts as cell-based. To be noted: HEK 293T IKZF2-mNeonGreen reporter, 24 hours incubation. In outline:
as §1

Experiment [3] has as its target T5, IKZF2 (Helios) (Homo sapiens, UniProt Q96SW2+Q9UKS7).
T5 construct: Leu-Asp junction (codons ctcgac before the linker); mScarlet (behind P2A) (C, cleaved yes); expressed in transfected cells
The experiment is described as above. It counts as cell-based. To be noted: HEK-293T, 24 h, @ 1 μM, HEK 293T IKZF2-mNeonGreen reporter, 24 hours incubation. In outline: as §1

Another experiment deals with T6, IKZF3 (Aiolos) (Homo sapiens, UniProt Q9UKT9).
T6 construct: Leu-Asp junction (codons ctcgac before the linker); mScarlet (behind P2A) (C, cleaved yes); expressed in transfected cells
T6 sequence (Q96SW2 whole entry partner): as the sequence (Q96SW2 whole entry) above
T6 sequence (Q16531 whole entry partner): as the sequence (Q16531 whole entry partner) above
T6 sequence (Q9UKT9 whole entry): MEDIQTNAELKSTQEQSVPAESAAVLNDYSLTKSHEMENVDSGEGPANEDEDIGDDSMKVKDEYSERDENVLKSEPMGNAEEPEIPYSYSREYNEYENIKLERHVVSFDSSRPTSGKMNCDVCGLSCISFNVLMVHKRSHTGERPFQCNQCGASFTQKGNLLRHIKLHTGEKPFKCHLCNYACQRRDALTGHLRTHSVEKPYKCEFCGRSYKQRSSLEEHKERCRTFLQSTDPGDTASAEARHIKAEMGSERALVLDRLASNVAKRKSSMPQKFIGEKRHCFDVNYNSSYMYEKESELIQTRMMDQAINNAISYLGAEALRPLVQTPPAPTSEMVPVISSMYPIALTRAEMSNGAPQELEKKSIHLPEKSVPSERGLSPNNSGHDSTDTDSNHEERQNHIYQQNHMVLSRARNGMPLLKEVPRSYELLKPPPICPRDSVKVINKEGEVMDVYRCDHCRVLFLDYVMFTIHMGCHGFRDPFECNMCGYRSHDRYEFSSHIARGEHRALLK
The experiment in a line: IKZF3 reporter degradation assay (HEK 293T IKZF3-mNeonGreen reporter cell line). Conditions: HEK 293T IKZF3-mNeonGreen reporter, 24 hours incubation. It counts as cell-based. In outline:
as §1

Structures are written as SMILES. Where only a bound is given, the exact number is not on record here.

T5 sequence (Q9UKS7 whole entry): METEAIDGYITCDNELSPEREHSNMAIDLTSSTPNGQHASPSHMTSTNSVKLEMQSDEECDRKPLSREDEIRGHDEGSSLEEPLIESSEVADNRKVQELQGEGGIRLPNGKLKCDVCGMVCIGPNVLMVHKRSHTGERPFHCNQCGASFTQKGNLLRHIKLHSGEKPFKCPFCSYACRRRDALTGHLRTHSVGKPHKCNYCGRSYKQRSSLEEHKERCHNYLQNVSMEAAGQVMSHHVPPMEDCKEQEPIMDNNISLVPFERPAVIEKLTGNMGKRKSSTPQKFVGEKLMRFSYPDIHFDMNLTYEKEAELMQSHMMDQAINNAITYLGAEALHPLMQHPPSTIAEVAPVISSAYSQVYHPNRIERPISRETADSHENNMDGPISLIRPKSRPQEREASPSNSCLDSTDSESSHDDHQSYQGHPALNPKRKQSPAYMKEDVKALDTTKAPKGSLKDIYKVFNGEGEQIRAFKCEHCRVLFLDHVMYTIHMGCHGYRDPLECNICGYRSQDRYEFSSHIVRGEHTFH
T5 sequence (Q96SW2 whole entry): as the sequence (Q96SW2 whole entry) above
T5 sequence (Q16531 whole entry partner): as the sequence (Q16531 whole entry partner) above
T4 sequence (Q9UKS7 whole entry): as the sequence (Q9UKS7 whole entry) above
T4 sequence (Q96SW2 whole entry, further chain): as the sequence (Q96SW2 whole entry) above
T4 sequence (Q16531 whole entry partner): as the sequence (Q16531 whole entry partner) above
T1 sequence (Q96SW2 whole entry partner): as the sequence (Q96SW2 whole entry) above
T1 sequence (Q16531 whole entry partner): as the sequence (Q16531 whole entry partner) above
T1 sequence (P15170 whole entry): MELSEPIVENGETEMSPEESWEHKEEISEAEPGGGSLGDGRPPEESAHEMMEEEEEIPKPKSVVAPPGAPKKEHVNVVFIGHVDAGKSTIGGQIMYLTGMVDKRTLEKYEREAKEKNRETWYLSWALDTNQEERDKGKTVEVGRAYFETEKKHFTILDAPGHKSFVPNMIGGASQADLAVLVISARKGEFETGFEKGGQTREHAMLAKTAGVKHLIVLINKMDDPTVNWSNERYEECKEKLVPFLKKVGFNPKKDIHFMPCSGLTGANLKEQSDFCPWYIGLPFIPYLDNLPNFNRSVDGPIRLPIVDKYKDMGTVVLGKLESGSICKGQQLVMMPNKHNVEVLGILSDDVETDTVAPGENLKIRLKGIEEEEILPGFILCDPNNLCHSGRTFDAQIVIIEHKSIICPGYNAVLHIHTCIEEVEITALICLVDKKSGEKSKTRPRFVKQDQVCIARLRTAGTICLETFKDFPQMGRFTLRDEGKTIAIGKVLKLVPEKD

With `Cc1cnc(C2CN([C@H]3CCCC3Oc3ccc4c(c3)CN(C3CCC(=O)NC3=O)C4=O)C2)o1` (mixture of isomers) [Compound 151-B, Rac-3-(5-(((trans)-2-(3-(5-methyloxazol-2-yl)azetidin-1-yl)cyclopentyl)oxy)-1-oxoisoindolin-2-yl)piperidine-2,6-dione], the DC50 at GSPT1 was over 30000 nM. In experiment [1], the EC50 was 79 nM.
With `O=C1CCC(N2Cc3cc(OC4CCCCC4N4CC(C(=O)N5CCCCC5)C4)ccc3C2=O)C(=O)N1` (single isomer, unassigned) [Compound 23-A, 3-(1-oxo-5-((2-(3-(piperidine-1-carbonyl)azetidin-1-yl)cyclohexyl)oxy)isoindolin-2-yl)piperidine-2,6-dione], the DC50 on GSPT1 was over 30000 nM.
Turning to `O=C1CCC(N2Cc3cc(OC4CCCCC4N4CC(c5ccnc6[nH]ccc56)C4)ccc3C2=O)C(=O)N1` (stereo not shown) [Compound 199-B, 3-(5-((2-(3-(1H-pyrrolo[2,3-b]pyridin-4-yl)azetidin-1-yl)cyclohexyl)oxy)-1-oxoisoindolin-2-yl)piperidine-2,6-dione], the DC50 on IKZF1 (Ikaros) was over 30000 nM; on IKZF2 (Helios) [2], 14 nM; at IKZF3 (Aiolos), over 30000 nM. Besides, on IKZF2 (Helios) [3], testing at 1 µM gave an inhibition of 75%. Moreover, the EC50 in experiment [1] worked out at 21 nM.
`O=C1CCC(N2Cc3cc(OC4CCCC4N4CC(c5cnc6ccccc6n5)C4)ccc3C2=O)C(=O)N1` (stereo not shown) [Compound 203-B, 3-(1-oxo-5-((2-(3-(quinoxalin-2-yl)azetidin-1-yl)cyclopentyl)oxy)isoindolin-2-yl)piperidine-2,6-dione]: the DC50 on IKZF1 (Ikaros) is over 30000 nM; at IKZF2 (Helios) [2], 130 nM; at IKZF3 (Aiolos), over 30000 nM. The molecule further had an inhibition at 1 µM against IKZF2 (Helios) [3] of 25.1%. Further, in experiment [1], the EC50 worked out at 20 nM.
For `O=C1CCC(N2Cc3cc(O[C@H]4CCCC[C@@H]4N4CC(c5ccc6[nH]ncc6c5)C4)ccc3C2=O)C(=O)N1` (stereo partly drawn) [Compound 204-B, 3-(5-(((1S,2S)-2-(3-(1H-indazol-5-yl)azetidin-1-yl)cyclohexyl)oxy)-1-oxoisoindolin-2-yl)piperidine-2,6-dione], the DC50 was over 30000 nM at IKZF1 (Ikaros), 22 nM at IKZF2 (Helios) [2] and over 30000 nM at IKZF3 (Aiolos). Besides, 1 µM produced 75.4% inhibition against IKZF2 (Helios) [3]. The EC50 in experiment [1] was 37 nM.
On to `O=C1CCC(N2Cc3cc(OC4CCCCC4N4CC(c5cccc6[nH]ncc56)C4)ccc3C2=O)C(=O)N1` (stereo not shown) [Compound 211-B, 3-(5-((2-(3-(2H-indazol-4-yl)azetidin-1-yl)cyclohexyl)oxy)-1-oxoisoindolin-2-yl)piperidine-2,6-dione], for which the DC50 at IKZF1 (Ikaros) is over 30000 nM; at IKZF2 (Helios) [2], 64 nM; at IKZF3 (Aiolos), over 30000 nM. The molecule also had an inhibition at 1 µM at IKZF2 (Helios) [3] of 79.3%. Besides, the EC50 in experiment [1] was 28 nM.
`O=C1CCC(N2Cc3cc(OC4CCCCC4N4CC(c5cncnc5)C4)ccc3C2=O)C(=O)N1` (stereo not shown) [Compound 212-B, 3-(1-oxo-5-((2-(3-(pyrimidin-5-yl)azetidin-1-yl)cyclohexyl)oxy)isoindolin-2-yl)piperidine-2,6-dione]: the DC50 is over 30000 nM on IKZF1 (Ikaros), 425 nM on IKZF2 (Helios) [2] and over 30000 nM on IKZF3 (Aiolos). This molecule returned an inhibition at 1 µM against IKZF2 (Helios) [3] of 20.3%. Also, the EC50 in experiment [1] was determined as 57 nM.
